Laboratory results reported in patent US8722343B2, “Methods and compositions for the diagnosis and treatment of diabetes” (priority 2008, dated 2014).

What was measured:
βTC3 cells = assay: TUNEL apoptosis assay in βTC3 cells; assay type: cell-based; conditions: 0.1 mM DHK for five days
Description: 1B: Glutamate overstimulation causes increased β-cell apoptosis. 24 hours after plating, βTC3 cells were incubated for five days with 0.5 mM glutamate, and cell apoptosis was assessed by TUNEL assay. The cell nuclei were labelled with PrI. Histograms on the right represent TUNEL positive cells per field, and are the mean±SE of two independent experiments performed in duplicate.
6C TUNEL assay: 24 hours after plating, βTC3 cells were incubated for five days with 0.1 mM DHK, and cell apoptosis was assessed by TUNEL assay. Cell nuclei were labelled with PrI. Data are presented as TUNEL positive cells per field (histograms on the right), and are the mean±SE of two independent experiments performed in duplicate. * P<0.05
6D ShRNA interference. βTC3 cells were transfected with two different shRNA directed against GLT1 (Sh1, Sh3) or a control shRNA (ShC), and three days after transfection, cells were assayed for 3[H]-D-aspartate uptake (b) or lysed and the presence of GLT assayed by western blotting (a) or fixed and processed for TUNEL (c).
Apoptosis of β-TC3 cells was estimated using the terminal deoxynucleotidyltransferase-mediated dUTP-biotin nick end-labelling assay (TUNEL). […] Tunel-positive cells were counted by two independent observers using a 40× objective from at least 40 randomly selected fields per coverslip. […]

αTC1 cells = assay: Na-dependent [3H]-D-aspartate uptake in αTC1 cells; assay type: cell-based, mouse; conditions: DHK in uptake solution
Description: (§1) 2D: 3H-D-Aspartate uptake. Four days after plating the Na-dependent (NaCl) and Na-independent (ChCl) [3H]-D-Aspartate uptake was measured in αTC1 and βTC3 cells. Data are expressed as cpm/well/10 min and represent the mean±SE of at least three independent experiments performed in triplicate. * (NaCl vs ChCl) P<0.001; ° (DHK versus control) P<0.001.
(§2) 150.000 cells/well were plated in a 24-wells plate, and grown until confluence. After two washes in sodium-free solution (150 mM ChCl, 2 mM KCl, 1 mM CaCl2, 1 mM MgCl2, 10 mM Hepes pH 7.5), cells were incubated for 10 minutes in 200 μl of Na^+-dependent (150 mM NaCl 2 mM KCl, 1 mM CaCl2, 1 mM MgCl2, 10 mM Hepes pH 7.5) or Na^+-independent (sodium-free solution) uptake solution containing 5 μCi/ml of [^3H]D-Aspartic acid (specific activity 37 Ci/mmol; Amersham Biosciences). The amino acid uptake was stopped by washing the cells twice in ice-cold sodium-free solution. Cells were dissolved in 150 μl of SDS 1% for liquid scintillation counting. For transport inhibition, DHK was added to the uptake solution at the indicated concentrations.

human isolated islets = assay type: cell-based; conditions: 16.7 mM glucose; DHK (0.3 mM) or L-glutamate (0.5 mM) alone
Description: FIG. 5: GLT1 CONTROLS HORMONE SECRETION IN HUMAN ISOLATED ISLETS. 48 hours after isolation, 20 human islets per tube were exposed to 3.3 or 16.7 mM glucose in the absence and the presence of either L-glutamate (0.5 mM), DHK (0.3 mM) or both L-glutamate and DHK, and insulin secretion measured. Levels of secreted insulin from islets were normalized to total insulin content. Data are expressed as % of insulin content and represent the mean±SD of two independent experiments performer in duplicate.
Insulin content and secretion were assessed on 20 islets, using a Micro-particle Enzyme Immunoassay (MEIA insulin, IMX System, Abbott Laboratories, Abbott Park, Ill., USA). Insulin secretion in response to increasing glucose concentrations, glutamate or DHK treatment was assessed by static incubation as previously described (Federici et al, 2000). Briefly, batches of 20 islets were pre-incubated in 1 ml of Krebs-Ringer buffer (KRB) supplemented with 3, 3 or 16.7 mM glucose for 30 min. Then the supernatants were replaced with Kreb's buffer containing 3, 3 or 16.7 mM glucose plus glutamate or the specific GLT1 inhibitor DHK (Sigma, St Louis, Mo., USA), as indicated. After a 30-min incubation at 37° C., the medium was removed and frozen for immunoassays. At the end of incubation, islets were lysed in lyses buffer and the total insulin content determined by immunoassay. […]

GLT1 [1] = molecular target: T1, GLT1 (Homo sapiens, UniProt P43004); assay: Na-dependent [3H]-D-aspartate uptake in isolated human islets; assay type: cell-based; set-up: dose or concentration left out as unconfirmed
T1 construct: from tissue; host or cells: isolated human pancreatic islets from cadaveric multiorgan donors
T1 sequence (P43004 whole entry): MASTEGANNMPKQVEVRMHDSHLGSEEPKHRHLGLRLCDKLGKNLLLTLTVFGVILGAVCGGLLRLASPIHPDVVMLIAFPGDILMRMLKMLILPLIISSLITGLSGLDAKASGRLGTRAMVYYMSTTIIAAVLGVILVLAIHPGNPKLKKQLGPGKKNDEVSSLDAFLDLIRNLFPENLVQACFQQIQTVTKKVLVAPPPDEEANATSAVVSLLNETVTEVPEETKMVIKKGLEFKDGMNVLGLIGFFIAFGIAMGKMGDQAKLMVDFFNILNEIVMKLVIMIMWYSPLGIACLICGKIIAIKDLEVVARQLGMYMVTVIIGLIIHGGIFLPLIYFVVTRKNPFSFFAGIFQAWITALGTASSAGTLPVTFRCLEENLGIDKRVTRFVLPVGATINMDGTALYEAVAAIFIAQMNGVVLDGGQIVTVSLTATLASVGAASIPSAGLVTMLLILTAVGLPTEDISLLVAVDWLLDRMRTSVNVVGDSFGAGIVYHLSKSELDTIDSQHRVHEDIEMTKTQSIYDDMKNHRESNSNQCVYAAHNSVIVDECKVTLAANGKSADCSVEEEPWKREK
Description: 3B: 3H-D Aspartate uptake. The Na-dependent (NaCl) and Na-independent (ChCl) [3H]-D-Aspartate uptake was measured in 40, hand picked, isolated human islets. […] Data are expressed as % of Na-dependent uptake (NaCl) and represent the mean±SE of at least three independent experiments performed in triplicate. * (DHK versus controls) P<0.001.
Human pancreatic islets were isolated from the pancreases of cadaveric multiorgan donors by using the procedure already described by Ricordi (Ricordi, et al, 1988). The islets used in this study were isolated from eight different organs. After the isolation, the islets were purified from the contaminant exocrine tissue by centrifugation on Ficoll gradients, obtaining a final purity that ranged from 60% to 80%, as assayed by dithizone staining (Ricordi et al, 1988). Islets were then cultured in RPMI 1640 tissue culture medium. After a 48-h stabilization culture, old medium was replaced with fresh medium and islets were cultured until used for insulin secretory studies, RNA extraction and uptake experiments. For apoptosis assay, fresh medium containing glutamate (0.5 or 5 mM) or DHK (0.05 or 0.1 mM) was replaced and islets were cultured for additional five days.
150.000 cells/well were plated in a 24-wells plate, and grown until confluence. […]

GLT1 [2] = molecular target: T2, GLT1 (Mus musculus, UniProt P43006); assay: Na-dependent [3H]-D-aspartate uptake in βTC3 cells; assay type: cell-based
T2 construct: Since GLT1 is endogenously expressed in beta-TC3; endogenous in cells; host or cells: βTC3 mouse pancreatic beta-cell line
T2 sequence (P43006 1-569 isoform P43006-2): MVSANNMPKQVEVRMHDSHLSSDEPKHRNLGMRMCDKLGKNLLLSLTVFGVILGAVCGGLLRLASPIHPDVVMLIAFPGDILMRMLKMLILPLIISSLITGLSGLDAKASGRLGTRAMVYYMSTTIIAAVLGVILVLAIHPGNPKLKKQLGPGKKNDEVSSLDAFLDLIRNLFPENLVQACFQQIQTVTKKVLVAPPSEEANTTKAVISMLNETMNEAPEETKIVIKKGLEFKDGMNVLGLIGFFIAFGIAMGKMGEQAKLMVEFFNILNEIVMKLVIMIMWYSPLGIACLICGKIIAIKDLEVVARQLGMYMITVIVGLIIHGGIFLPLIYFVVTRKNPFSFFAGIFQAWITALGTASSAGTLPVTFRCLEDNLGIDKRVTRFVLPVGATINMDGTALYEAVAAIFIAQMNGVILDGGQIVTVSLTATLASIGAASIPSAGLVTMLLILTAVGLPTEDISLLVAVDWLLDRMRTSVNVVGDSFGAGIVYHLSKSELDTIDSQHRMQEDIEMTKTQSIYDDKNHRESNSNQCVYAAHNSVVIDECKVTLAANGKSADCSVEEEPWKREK
Description: as §1
3×10^5 βTC3 cells/well were plated onto 24-well culture plates and the Na-dependent [3H]-D-Aspartate uptake was measured in the presence or the absence of increasing DHK concentrations (0.05-0.3 mM). Data are expressed as cpm/well/10 min and represent the mean±SE of at least three independent experiments performer in triplicate. * (DHK versus controls) P<0.001.
as §2, with “For transport inhibition, DHK was added to the uptake solution at the indicated concentrations.” left out

## CC(C)[C@H]1CN[C@H](C(=O)O)[C@H]1CC(=O)O [DHK, Dihydrokainic Acid]
βTC3 cells
  cause of cytotoxicity by TUNEL assay: due to apoptosis
αTC1 cells
  Na-dependent D-aspartate uptake: not inhibited
Human isolated islets
  effect on insulin secretion: No effect
GLT1 [1]
  Na-dependent transport of aspartate: completely inhibited
GLT1 [2]; 1 mM DHK
  Na-dependent aspartate uptake: completely inhibited
GLT1 [2]; DHK 0.05-0.3 mM, read-out: IC50, inhibition of Na-dependent D-aspartate uptake
  IC50: 50 µM
